From patent US9845302B2, “Anticancer compounds and process for the preparation thereof” (Council of Scientific and Industrial Research, priority 2013, dated 2017)
pIC50: −log10 of the molar value.

Tested on: HL60-HUVEC cell adhesion
Assay: HL60-HUVEC cell adhesion inhibition, 8 point dose dependent assay (TNF-α stimulated, Calcein AM fluorometric)
Assay type: cell-based
Conditions: Homo sapiens; HUVEC dosed 2 hours with compound, 100 ng/mL TNF-α 4 hours, HL60 co-culture 30 mins
Procedure: Determination of Cell Adhesion Inhibition
An 8 point dose dependent assay was carried out to assess the IC50's of the test compounds.
10,000 HUVEC cells/well (passage number. 8) was seeded into a 96 well black clear bottom plate and cells were cultured for 4 days at 37° C. After the cell culture, HUVEC's were dosed with test compound and reference compound (peribysin E) at a top concentration of 100 μM (1:3 step down dilution-8 concentrations) and cells were cultured for 2 hours at 37° C. HUVEC's were treated with/without 100 ng/mL of TNF-α further cultured for 4 hours at 37° C. 100,000 HL60 cells/well (passage number. 16) was loaded with Calcein AM dye and co-cultured with HUVECs, and cells were cultured for 30 mins at 37° C. HL60-HUVEC cell adhesion was detected by a fluorometric method using a BMG Polarstar. (IC50=inhibition concentration at 50%). HL60-HUVEC Cell Adhesion-IC50 Assessment of Compound

Row | SMILES | pIC50
1 | C=C1CO[C@@H](OC)[C@]12C[C@@H]1C=CC[C@@H](C)[C@]1(C)[C@H]2O (racemic) [Compound 9, (2R,2′R,3′R,3a′S,4′R,7a′R)-2-methoxy-3a′,4′-dimethyl-4-methylene 1′,3′,3a′,4,4′,5,5′,7a′-octahydro-2H-spiro[furan-3,2′-inden]-3′-ol] | 4.73
2 | C=C1CO[C@@H](OC)[C@]12C[C@@H]1[C@@H]3O[C@@H]3C[C@@H](C)[C@]1(C)[C@H]2O (racemic) [Compound 10, (1a′R,2R,3R,3′R,3a′S,4′R,6a′S,6b′S)-2-methoxy-3′,3a′-dimethyl-4-methylenedecahydro-2H-spiro[furan-3,5′-indeno[4,5-b]oxiren]-4′-ol] | 4.80
3 | C=C1CO[C@@H](OC)[C@]12C[C@@H]1C[C@H](O)C[C@@H](C)[C@]1(C)[C@H]2O (racemic) [Compound 11a, (1′R,2R,2′R,3a′R,5′R,7′R,7a′S)-2-methoxy-7′,7a′-dimethyl-4-methylene decahydro-2H-spiro[furan-3,2′-indene]-1′,5′-diol] | 4.98
4 | C=C1CO[C@@H](OC)[C@]12C[C@@H]1[C@H](O)CC[C@@H](C)[C@]1(C)[C@H]2O (racemic) [Compound 11b, (1′R,2R,2′R,3a′S,4′R,7′R,7a′S)-2-methoxy-7′,7a′-dimethyl-4-methylenedecahydro-2H-spiro[furan-3,2′-indene]-1′,4′-diol] | 5.37
5 | C=C1CO[C@@H](OC)[C@]12C[C@@H]1[C@@H](O)CC[C@@H](C)[C@]1(C)[C@H]2O (racemic) [Compound 11c, (1′R,2R,2′R,3a′S,4′S,7′R,7a′S)-2-methoxy-7′,7a′-dimethyl-4-methylenedecahydro-2H-spiro[furan-3,2′-indene]-1′,4′-diol] | 4.86
6 | C=C1CO[C@@H](OC)[C@]12C[C@@H]1CCC[C@@H](C)[C@]1(C)[C@H]2O (racemic) [Compound 20, (1′R,2R,2′R,3a′S,7′R,7a′S)-2-methoxy-7′,7a′-dimethyl-4-methylenedecahydro-2H-spiro[furan-3,2′-inden]-1′-ol] | 4.96
7 | C=C1CO[C@@H](OC)[C@]12C[C@@H]1C[C@@H](O)C[C@@H](C)[C@]1(C)[C@H]2O (racemic) [Peribysin E, (1′R,2R,2′R,3a′R,5′S,7′R,7a′S)-2-methoxy-7′,7a′-dimethyl-4-methylenedecahydro-2H-spiro[furan-3,2′-indene]-1′,5′-diol, reference compound] | 4.91 to 5.16

Tested on: adhesion of leukemia HL-60 cells to human-umbilical-vein endothelial cells (HUVEC)
Assay: not given
Conditions: HL-60 cells to HUVEC; background statement; cited from earlier work

Row | SMILES | cell adhesion inhibitory activity
8 | C=C1CO[C@@H](OC)[C@]12C[C@@H]1C[C@@H](O)C[C@@H](C)[C@]1(C)[C@H]2O (racemic) [Peribysin E, (1′R,2R,2′R,3a′R,5′S,7′R,7a′S)-2-methoxy-7′,7a′-dimethyl-4-methylenedecahydro-2H-spiro[furan-3,2′-indene]-1′,5′-diol, reference compound] | inhibit adhesion of leukemia HL-60 cells to human-umbilical-vein endothelial cells (HUVEC)
9 | C=C1CO[C@@H](OC)[C@]12C[C@@H]1C[C@@H](O)C[C@@H](C)[C@]1(C)[C@H]2O [(−)-peribysin E] | more potent activity than the gold standard herbimycin
